Reference: BindingDB's records for doi:10.1021/acs.jmedchem.7b00606 (Griffith University, 2017)

Target: Carbonic anhydrase 2 (Homo sapiens, UniProt P00918)
Experiment: Binding affinity to human carbonic anhydrase 2 by surface plasmon resonance spectrometry

O=c1[nH]c(O)c(-c2ccccc2)[nH]1 [5-Phenyl-imidazolidine-2,4-dione]
Kd: > 2000 µM
